According to patent US11701368B2 (EYE CO PTY LTD, priority 2018, dated 2023):
Read-outs that look alike come from different tables or passages of the source.

Columns and labels:
[1] = Particle sizing by laser light scattering; type: physicochemical; details: as received powder
[2] = Batch production: Av drug content per vial (RGA40/1); type: physicochemical; details: batch after freeze drying and gamma sterilization; specification 20.0 ± 2.0 mg
[3] = Batch production: pH (RGA40/3); type: physicochemical; details: specification 6.0-8.0
[4] = Batch production: particle size (RGA40/2); type: physicochemical; details: for Particle Size D(0.5): specification <20; for Particle Size D(0.9): specification <30
[5] = Stability of drug aqueous solutions under gamma irradiation; type: physicochemical; details: saturated aqueous solution, ~25 kGy at ambient temperature
Protocol: Preferably, the study materials are sterile, at least to a large degree for preclinical studies. In the absence of a facility for complete aseptic manufacture, in order to sterilize the suspensions there are two possible approaches foreseen—autoclaving the final suspensions in ‘vial’, or gamma sterilization. Consequently, in order to initially test the resistance of the drug to degradation in the ‘wet’ environment, drug in saturated solutions were prepared as for the storage stability studies above and subjected to autoclave conditions (121° C./30 min) or gamma irradiation (˜25 kGy at ambient temperature).
Gamma irradiation was conducted at a firm in Melbourne (Steritech; 160 South Gippsland Hwy, Dandenong Sth) and QC certificates provided verifying dose of gamma irradiation received. The samples were exposed to 25 kGy radiation, which severely discoloured the vials, in long term this method may be very suitable when an appropriate glass container, resistant to gamma rays, is used for sample preparation.

[6] = Drug storage stability in saline (accelerated stability trial)
From the text: Consequently it was felt to be important to characterise the drug stability over time in aqueous solution as an indicator of likely issues with drug content and/or degradation products in the suspensions on storage.

[7] = Stability of drug aqueous solutions under autoclave conditions; type: physicochemical; details: saturated solution, 121° C./30 min
From the text: Preferably, the study materials are sterile, at least to a large degree for preclinical studies. In the absence of a facility for complete aseptic manufacture, in order to sterilize the suspensions there are two possible approaches foreseen—autoclaving the final suspensions in ‘vial’, or gamma sterilization.

glucocorticoid receptor = target: T1, glucocorticoid receptor (Homo sapiens, UniProt P04150); assay: Glucocorticoid receptor activity (GR potency) of corticosterones; details: relative potency, hydrocortisone (cortisol) = 1
T1 sequence (P04150 1-777): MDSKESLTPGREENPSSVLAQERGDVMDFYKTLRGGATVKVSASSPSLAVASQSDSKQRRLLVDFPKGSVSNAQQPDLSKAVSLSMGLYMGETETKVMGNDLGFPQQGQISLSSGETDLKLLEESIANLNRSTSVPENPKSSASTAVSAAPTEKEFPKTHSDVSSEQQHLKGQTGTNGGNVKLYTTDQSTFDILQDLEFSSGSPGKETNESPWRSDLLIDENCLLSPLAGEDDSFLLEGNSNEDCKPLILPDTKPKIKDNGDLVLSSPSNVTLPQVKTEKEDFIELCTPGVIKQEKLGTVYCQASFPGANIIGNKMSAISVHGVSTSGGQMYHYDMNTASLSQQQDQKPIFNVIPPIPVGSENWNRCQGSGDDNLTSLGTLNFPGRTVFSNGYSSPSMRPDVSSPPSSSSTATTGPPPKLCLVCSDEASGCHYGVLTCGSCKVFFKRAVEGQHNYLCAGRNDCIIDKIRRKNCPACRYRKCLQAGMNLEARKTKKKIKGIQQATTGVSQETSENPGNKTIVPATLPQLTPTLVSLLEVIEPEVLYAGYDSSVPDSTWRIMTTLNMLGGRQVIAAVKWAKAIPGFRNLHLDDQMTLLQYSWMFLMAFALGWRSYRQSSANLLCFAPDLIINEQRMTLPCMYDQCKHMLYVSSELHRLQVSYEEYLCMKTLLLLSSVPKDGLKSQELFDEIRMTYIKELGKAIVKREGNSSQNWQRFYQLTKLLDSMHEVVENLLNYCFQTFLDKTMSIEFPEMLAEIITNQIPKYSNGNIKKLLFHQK

[8] = target: T2, mineralocorticoid receptor (Homo sapiens, UniProt P08235); assay: Mineralocorticoid receptor activity (MR potency) of corticosterones; details: relative potency, hydrocortisone (cortisol) = 1
T2 sequence (P08235 1-984): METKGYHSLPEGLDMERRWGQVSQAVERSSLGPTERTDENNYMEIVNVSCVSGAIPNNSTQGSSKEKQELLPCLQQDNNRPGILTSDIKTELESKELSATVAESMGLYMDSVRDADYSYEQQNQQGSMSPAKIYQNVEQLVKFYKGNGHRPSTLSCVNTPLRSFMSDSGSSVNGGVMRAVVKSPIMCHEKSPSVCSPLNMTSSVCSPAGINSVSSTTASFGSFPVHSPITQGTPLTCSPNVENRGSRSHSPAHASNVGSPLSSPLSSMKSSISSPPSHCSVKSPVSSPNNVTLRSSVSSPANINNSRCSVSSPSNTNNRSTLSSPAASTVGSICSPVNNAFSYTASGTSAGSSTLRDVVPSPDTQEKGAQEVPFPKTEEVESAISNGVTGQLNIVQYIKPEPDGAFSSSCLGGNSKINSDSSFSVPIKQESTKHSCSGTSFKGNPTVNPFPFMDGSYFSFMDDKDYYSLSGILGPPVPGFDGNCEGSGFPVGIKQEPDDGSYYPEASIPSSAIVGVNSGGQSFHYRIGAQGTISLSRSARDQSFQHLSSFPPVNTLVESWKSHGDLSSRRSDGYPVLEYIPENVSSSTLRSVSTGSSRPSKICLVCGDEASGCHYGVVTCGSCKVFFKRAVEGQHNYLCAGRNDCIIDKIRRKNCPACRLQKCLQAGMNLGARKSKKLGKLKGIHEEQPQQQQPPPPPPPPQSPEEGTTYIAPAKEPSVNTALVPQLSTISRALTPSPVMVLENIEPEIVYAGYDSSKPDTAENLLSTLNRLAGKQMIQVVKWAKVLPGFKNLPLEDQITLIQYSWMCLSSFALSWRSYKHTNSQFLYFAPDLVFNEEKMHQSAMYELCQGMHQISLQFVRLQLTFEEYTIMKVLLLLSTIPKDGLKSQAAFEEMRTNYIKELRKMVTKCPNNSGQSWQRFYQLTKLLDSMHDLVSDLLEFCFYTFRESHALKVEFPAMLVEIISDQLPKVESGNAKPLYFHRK

[9] = Aqueous solubility and solubility enhancement with hydroxy-propyl β-cyclodextrin in saline
From the text: FIG. 1: Solubility enhancement for MR compounds and TA in saline with addition of hydroxy propyl β-cyclodextrin (data are mean±sd, n=3). Top: FLU and TA; Bottom: 11-DC; DCS and DCSA.

[10] = Stability of dry drug powders under gamma irradiation; type: physicochemical; details: 25 kGy
From the text: The poor stability of most drugs under either autoclave or gamma irradiation when in contact with aqueous diluent led to a further set of stability studies to test the effect of gamma irradiation on the dry drug powders, with a view to providing the study materials as sterile powders for reconstitution immediately prior to administration.

[11] = test system: New Zealand albino rabbit eyes; details: cited from earlier work
[12] = Duration of action (t1/2); details: in vivo; read-out: Duration of action (t1/2 in hours) (converted)

SMILES: C[C@]12CCC(=O)C=C1CC[C@@H]1[C@@H]2CC[C@@]2(C)[C@H]1CC[C@]2(O)C(=O)CO [11-DC, 11-deoxycortisol]
- D(v, 0.5) [1]: 81 microns
- D(v, 0.9) [1]: 233 microns
- Av Drug Content per vial [2]: Av Drug RGA40/1 20.0 ± 2.0 mg 18.4 ± 0.5 27 Oct. 2006 Passed
- pH [3]: pH RGA40/3 6.0-8.0 7.0 3 Nov. 2006 Passed
- Particle Size D(0.5) [4]: Particle RGA40/2 D(0.5) = <20 7.1 3 Nov. 2006 Passed
- Particle Size D(0.9) [4]: Size D(0.9) = <30 25
- initial drug content remaining after gamma irradiation [5]: less than 20%
- drug concentration remaining, % of original concentration [6]: > 90%
- stability of aqueous solution to autoclave conditions [7]: stable

SMILES: C[C@]12CCC(=O)C=C1CC[C@@H]1[C@@H]2[C@@H](O)C[C@]2(C=O)[C@@H](C(=O)CO)CC[C@@H]12 [Aldosterone]
- GR potency (glucocorticoid receptor): 0.3
- MR potency [8]: 200-1000

SMILES: C[C@H]1C[C@H]2[C@@H]3CCC4=CC(=O)C=C[C@]4(C)[C@@]3(Cl)[C@@H](O)C[C@]2(C)[C@@]1(O)C(=O)CO [Beclometasone]
- GR potency (glucocorticoid receptor): 8 puffs 4 times a day;

SMILES: C[C@]12CCC(=O)C=C1CC[C@@H]1[C@@H]2C(=O)C[C@@]2(C)[C@H]1CC[C@]2(O)C(=O)CO [Cortisone]
- GR potency (glucocorticoid receptor): 0.8
- MR potency [8]: 0.8

SMILES: C[C@]12CC[C@H]3[C@@H](CCC4=CC(=O)CC[C@@]43C)[C@@H]1CC[C@@H]2C(=O)CO [DCS, Deoxycorticosterone]
- D(v, 0.5) [1]: 22 microns
- D(v, 0.9) [1]: 80 microns
- Av Drug Content per vial [2]: Av Drug RGA40/1 20.0 ± 2.0 mg 18.5 ± 0.7 1 Nov. 2006 Passed
- pH [3]: pH RGA40/3 6.0-8.0 7.0 3 Nov. 2006 Passed
- solubility relative to 11-DC and DCSA [9]: 4-8 fold
- concentration in solution ([9]; saline with 50 mM HP-βCD): > 8000 µg/mL
- Particle Size D(0.5) [4]: Particle RGA40/2 D(0.5) = <20 12.7 3 Nov. 2006 Passed
- Particle Size D(0.9) [4]: Size D(0.9) = <30 30.0
- stability of aqueous solution to autoclave conditions [7]: stable

SMILES: CC(=O)OCC(=O)[C@H]1CC[C@H]2[C@@H]3CCC4=CC(=O)CC[C@]4(C)[C@H]3CC[C@]12C [DCSA, deoxycorticosterone acetate]
- D(v, 0.5) [1]: 52 microns
- D(v, 0.9) [1]: 226 microns
- GR potency (glucocorticoid receptor): 0
- stability of dry powder to gamma sterilization (drug content vs non-irradiated control) [10]: slight reduction in drug content
- Av Drug Content per vial [2]: Av Drug RGA40/1 20.0 ± 2.0 mg 16 ± 0.9 2 Nov. 2006 Failed•
- pH [3]: pH RGA40/3 6.0-8.0 7.0 3 Nov. 2006 Passed
- aqueous solubility relative to the other compounds [9]: very low
- plateau concentration in solution ([9]; 48 h): around 2 mg/mL
- solubility ([9]; aqueous with cosolvent or surfactant or cyclodextrin, thermodynamic from solid): > 6000 µg/mL
- MR potency [8]: 20
- Particle Size D(0.5) [4]: Particle RGA40/2 D(0.5) = <20 8.25 3 Nov. 2006 Passed
- Particle Size D(0.9) [4]: Size D(0.9) = <30 26.77
- stability of aqueous solution to gamma irradiation [5]: completely degraded
- stability of aqueous solution to autoclave conditions [7]: completely degraded to DCS

SMILES: C[C@]12CCC(=O)C=C1CC[C@H]1[C@@H]3CC[C@](O)(C(=O)CO)[C@@]3(C)C[C@H](O)[C@@]12F [FLU, fludrocortisone]
- ERG in the other groups / other eyes ([11]; intravitreal 400 μg, 1 mg, 2 mg/0.1 ml and remaining eyes, two weeks after injection): no significant decrease in ERG
- eyes with decreases in ERG ([11]; intravitreal 4 mg/0.1 ml, two weeks after injection): One
- eyes with vitreous hemorrhage ([11]; intravitreal 4 mg/0.1 ml): one
- signs of retinal toxicity on slit-lamp examination, indirect ophthalmoscopy or light microscopy ([11]; rabbit, in vivo): no signs of retinal toxicity
- drug concentration remaining, % of original concentration ([6]; saturated solution in saline, 60° C., after two weeks): 20%
- stability in saline over time ([6]; saturated solution in saline, 60° C., up to 14 days): marked instability
- stability of aqueous solution to autoclave conditions [7]: partly degraded

SMILES: C[C@]12CCC(=O)C=C1CC[C@@H]1[C@@H]2[C@@H](O)C[C@@]2(C)[C@H]1CC[C@]2(O)C(=O)CO [Hydrocortisone (cortisol), Hydrocortisone]
- half-life [12]: 8 h
- GR potency (glucocorticoid receptor): 1
- MR potency [8]: 1

SMILES: C[C@H]1C[C@@H]2[C@H]([C@@H](O)C[C@@]3(C)[C@H]2CC[C@]3(O)C(=O)CO)[C@@]2(C)C=CC(=O)C=C12 [Methylprednisolone]
- half-life [12]: 18 to 40 h

SMILES: C[C@]12C=CC(=O)C=C1CC[C@@H]1[C@@H]2[C@@H](O)C[C@@]2(C)[C@H]1CC[C@]2(O)C(=O)CO [Prednisolone]
- half-life [12]: 16 to 36 h
- GR potency (glucocorticoid receptor): 4
- MR potency [8]: 0.8

SMILES: C[C@]12C=CC(=O)C=C1CC[C@@H]1[C@@H]2C(=O)C[C@@]2(C)[C@H]1CC[C@]2(O)C(=O)CO [Prednisone]
- half-life [12]: 16 to 36 h
- MR potency [8]: 0.8

SMILES: CC1(C)O[C@@H]2C[C@H]3[C@@H]4CCC5=CC(=O)C=C[C@]5(C)[C@@]4(F)[C@@H](O)C[C@]3(C)[C@]2(C(=O)CO)O1 [TA, triamcinolone acetonide]
- absolute solubility (compared with FLU) [9]: lower overall
- aqueous solubility relative to the other compounds [9]: very low
- stability of aqueous solution to autoclave conditions [7]: moderately stable

SMILES: C[C@]12C=CC(=O)C=C1CC[C@H]1[C@@H]3C[C@@H](O)[C@](O)(C(=O)CO)[C@@]3(C)C[C@H](O)[C@@]12F [Triamcinolone]
- half-life [12]: 12 to 36 h
- GR potency (glucocorticoid receptor): 5
- MR potency [8]: 0
